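Results reflect a 48-hour exposure of cells in 96-well plates to compound at five concentrations. At the GI50, growth is halved. TGI marks complete inhibition of growth.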
Experiments:
Test in all cases: NCI-60 cell line screen, 48 h
HOP-92 NSCLC = tested on: HOP-92 NSCLC
NCI-H226 lung = tested on: NCI-H226 lung
SK-MEL-5 melanoma = tested on: SK-MEL-5 melanoma
SR leukemia = tested on: SR leukemia
IGROV1 ovarian = tested on: IGROV1 ovarian
OVCAR-8 ovarian = tested on: OVCAR-8 ovarian
CCRF-CEM leukemia = tested on: CCRF-CEM leukemia
HS 578T breast = tested on: HS 578T breast
PC-3 prostate = tested on: PC-3 prostate
OVCAR-5 ovarian = tested on: OVCAR-5 ovarian
SK-OV-3 ovarian = tested on: SK-OV-3 ovarian
T-47D breast = tested on: T-47D breast
HCT-116 colon = tested on: HCT-116 colon
MDA-MB-435 = tested on: MDA-MB-435
NCI-H23 lung = tested on: NCI-H23 lung
HT29 colon = tested on: HT29 colon
SK-MEL-28 melanoma = tested on: SK-MEL-28 melanoma
SK-MEL-2 melanoma = tested on: SK-MEL-2 melanoma
NCI-H522 lung = tested on: NCI-H522 lung
RPMI-8226 leukemia = tested on: RPMI-8226 leukemia
UACC-62 melanoma = tested on: UACC-62 melanoma
ACHN renal = tested on: ACHN renal
SF-539 CNS = tested on: SF-539 CNS
786-0 renal = tested on: 786-0 renal
CAKI-1 renal = tested on: CAKI-1 renal
A549 NSCLC = tested on: A549 NSCLC
SNB-19 CNS = tested on: SNB-19 CNS
OVCAR-3 ovarian = tested on: OVCAR-3 ovarian
NCI-H460 lung = tested on: NCI-H460 lung
TK-10 renal = tested on: TK-10 renal
U251 CNS = tested on: U251 CNS
M14 melanoma = tested on: M14 melanoma
SN12C renal = tested on: SN12C renal
HCT-15 colon = tested on: HCT-15 colon
UACC-257 melanoma = tested on: UACC-257 melanoma
HL-60(TB) leukemia = tested on: HL-60(TB) leukemia
MCF7 breast = tested on: MCF7 breast
HCC-2998 colon = tested on: HCC-2998 colon
KM12 colon = tested on: KM12 colon
SW-620 colon = tested on: SW-620 colon
UO-31 renal = tested on: UO-31 renal
RXF 393 renal = tested on: RXF 393 renal
K-562 leukemia = tested on: K-562 leukemia
SF-268 CNS = tested on: SF-268 CNS
OVCAR-4 ovarian = tested on: OVCAR-4 ovarian
HOP-62 NSCLC = tested on: HOP-62 NSCLC
MALME-3M melanoma = tested on: MALME-3M melanoma
BT-549 breast = tested on: BT-549 breast
SNB-75 CNS = tested on: SNB-75 CNS
SF-295 CNS = tested on: SF-295 CNS
DU-145 prostate = tested on: DU-145 prostate
NCI/ADR-RES ovarian = tested on: NCI/ADR-RES ovarian
EKVX NSCLC = tested on: EKVX NSCLC
A498 renal = tested on: A498 renal
MDA-MB-231 breast = tested on: MDA-MB-231 breast
COLO 205 colon = tested on: COLO 205 colon
LOX IMVI melanoma = tested on: LOX IMVI melanoma
MOLT-4 leukemia = tested on: MOLT-4 leukemia

O=C(c1ccccc1)c1ccc(O)c2ncccc12
GI50 (HOP-92 NSCLC): 2.89 µM | TGI (HOP-92 NSCLC): 16.5 µM | GI50 (NCI-H226 lung): 9.45 µM | TGI (NCI-H226 lung): 41.8 µM | GI50 (SK-MEL-5 melanoma): 4.72 µM | TGI (SK-MEL-5 melanoma): 26.6 µM | GI50 (SR leukemia): 1.15 µM | TGI (SR leukemia): > 100 µM | GI50 (IGROV1 ovarian): 2.4 µM | TGI (IGROV1 ovarian): 11.9 µM | GI50 (OVCAR-8 ovarian): 4.08 µM | TGI (OVCAR-8 ovarian): 41 µM | GI50 (CCRF-CEM leukemia): 3.64 µM | TGI (CCRF-CEM leukemia): > 100 µM | GI50 (HS 578T breast): 5.08 µM | TGI (HS 578T breast): 72 µM | GI50 (PC-3 prostate): 4.36 µM | TGI (PC-3 prostate): 97.6 µM | GI50 (OVCAR-5 ovarian): 4.87 µM | TGI (OVCAR-5 ovarian): 22.3 µM | GI50 (SK-OV-3 ovarian): 6.02 µM | TGI (SK-OV-3 ovarian): 19.1 µM | GI50 (T-47D breast): 3.14 µM | TGI (T-47D breast): 15.3 µM | GI50 (HCT-116 colon): 2.62 µM | TGI (HCT-116 colon): 10.3 µM | GI50 (MDA-MB-435): 6.13 µM | TGI (MDA-MB-435): 97.5 µM | GI50 (NCI-H23 lung): 4.85 µM | TGI (NCI-H23 lung): 19.6 µM | GI50 (HT29 colon): 10.1 µM | TGI (HT29 colon): > 100 µM | GI50 (SK-MEL-28 melanoma): 14.6 µM | TGI (SK-MEL-28 melanoma): > 100 µM | GI50 (SK-MEL-2 melanoma): 12 µM | TGI (SK-MEL-2 melanoma): 43.3 µM | GI50 (NCI-H522 lung): 2.51 µM | TGI (NCI-H522 lung): 8.3 µM | GI50 (RPMI-8226 leukemia): 4.25 µM | TGI (RPMI-8226 leukemia): 39.1 µM | GI50 (UACC-62 melanoma): 2.34 µM | TGI (UACC-62 melanoma): 10.6 µM | GI50 (ACHN renal): 3.46 µM | TGI (ACHN renal): 15.7 µM | GI50 (SF-539 CNS): 4.66 µM | TGI (SF-539 CNS): 21.3 µM | GI50 (786-0 renal): 5.09 µM | TGI (786-0 renal): 26.5 µM | GI50 (CAKI-1 renal): 1.13 µM | TGI (CAKI-1 renal): 6.3 µM | GI50 (A549 NSCLC): 9.02 µM | TGI (A549 NSCLC): > 100 µM | GI50 (SNB-19 CNS): 6.54 µM | TGI (SNB-19 CNS): > 100 µM | GI50 (OVCAR-3 ovarian): 2.1 µM | TGI (OVCAR-3 ovarian): 6.99 µM | GI50 (NCI-H460 lung): 1.75 µM | TGI (NCI-H460 lung): 16.2 µM | GI50 (TK-10 renal): 6.99 µM | TGI (TK-10 renal): > 100 µM | GI50 (U251 CNS): 5.93 µM | TGI (U251 CNS): 26.2 µM | GI50 (M14 melanoma): 2.7 µM | TGI (M14 melanoma): 19.5 µM | GI50 (SN12C renal): 2.46 µM | TGI (SN12C renal): 14.8 µM | GI50 (HCT-15 colon): 1.66 µM | TGI (HCT-15 colon): 25.9 µM | GI50 (UACC-257 melanoma): 5.75 µM | TGI (UACC-257 melanoma): > 100 µM | GI50 (HL-60(TB) leukemia): 2.09 µM | TGI (HL-60(TB) leukemia): 8.82 µM | GI50 (MCF7 breast): 2.93 µM | TGI (MCF7 breast): 9.08 µM | GI50 (HCC-2998 colon): 16.7 µM | TGI (HCC-2998 colon): 41.1 µM | GI50 (KM12 colon): 3.25 µM | TGI (KM12 colon): 16.9 µM | GI50 (SW-620 colon): 4.07 µM | TGI (SW-620 colon): 17.9 µM | GI50 (UO-31 renal): 1.28 µM | TGI (UO-31 renal): 13.5 µM | GI50 (RXF 393 renal): 3.18 µM | TGI (RXF 393 renal): 19.6 µM | GI50 (K-562 leukemia): 3.4 µM | TGI (K-562 leukemia): > 100 µM | GI50 (SF-268 CNS): 3.11 µM | TGI (SF-268 CNS): > 100 µM | GI50 (OVCAR-4 ovarian): 2.96 µM | TGI (OVCAR-4 ovarian): 11 µM | GI50 (HOP-62 NSCLC): 5.31 µM | TGI (HOP-62 NSCLC): 48.6 µM | GI50 (MALME-3M melanoma): 5.1 µM | TGI (MALME-3M melanoma): 46.4 µM | GI50 (BT-549 breast): 5.96 µM | TGI (BT-549 breast): 68.5 µM | GI50 (SNB-75 CNS): 15 µM | TGI (SNB-75 CNS): 90.7 µM | GI50 (SF-295 CNS): 3.78 µM | TGI (SF-295 CNS): > 100 µM | GI50 (DU-145 prostate): 5.72 µM | TGI (DU-145 prostate): 27.6 µM | GI50 (NCI/ADR-RES ovarian): 0.428 µM | TGI (NCI/ADR-RES ovarian): 6.03 µM | GI50 (EKVX NSCLC): 3.09 µM | TGI (EKVX NSCLC): 56.1 µM | GI50 (A498 renal): 9.29 µM | TGI (A498 renal): 27.4 µM | GI50 (MDA-MB-231 breast): 3.6 µM | TGI (MDA-MB-231 breast): 64.3 µM | GI50 (COLO 205 colon): 23.9 µM | TGI (COLO 205 colon): 95.7 µM | GI50 (LOX IMVI melanoma): 1.87 µM | TGI (LOX IMVI melanoma): 13.1 µM | GI50 (MOLT-4 leukemia): 3.16 µM | TGI (MOLT-4 leukemia): > 100 µM
